This is an account of results in patent US20100029702A1, “Method For Identification of Compound Having Anti-Anxiety Effect” (priority 2006, published 2010).

Test [1] deals with variant 3. Nature of the test: Changes in intracellular Ca2+ concentration in variant 3 gene stably-expressing strain. The test is classed as cell-based, human. As to conditions: variant3/CHO#14-18; A23187 20 μM, positive control. On the procedure:
(§1) Strains stably expressing splicing variants of the variant 3 gene were prepared by a method similar to the above-mentioned method using a variant 3 gene-expressing vector.
(§2) To analyze functions of the variant 3 gene, changes in the intracellular calcium (Ca^2+) concentration induced by CCK-8S were examined using a strain stably expressing the variant 3 gene prepared in Example 7. Changes in the intracellular calcium (Ca^2+) concentration were measured by a method similar to the method described in Example 5.
(§3) Cells were seeded in a 96-well plate (a plate with a black wall and a transparent bottom) at a cell count of 3×10^4/100 μL of medium/well and cultured overnight at 37° C. in a 5% CO2 incubator. On the following day, 50 μL of the medium was removed from each well, 50 μL of a loading buffer was added to each well, the mixture was reacted at room temperature for 1 h, so that a fluorescent dye contained in the loading buffer was taken up into the cell. The loading buffer was prepared by a method similar to the method described in Example 5. After reaction, changes over time in the fluorescence intensity after addition of CCK-8S in each well were measured using the FLEX station (Molecular Device) for 40 sec. CCK-8S was used at a final concentration of 10 pM to 1 μM. Furthermore, as a positive control of the assay, A23187 was used at a final concentration of 20 μM.

The target in test [2] is T1, variant 3 (Homo sapiens, UniProt O60241, DEL364-418).
T1 construct: a vector expressing each full-length cDNA clone was constructed; expressed in transfected cells; host or cells: CHO-K1 (variant3/CHO#14-18), variant3/pcDNA3.1
T1 sequence (O60241 with tags, fused parts or gaps DEL364-418): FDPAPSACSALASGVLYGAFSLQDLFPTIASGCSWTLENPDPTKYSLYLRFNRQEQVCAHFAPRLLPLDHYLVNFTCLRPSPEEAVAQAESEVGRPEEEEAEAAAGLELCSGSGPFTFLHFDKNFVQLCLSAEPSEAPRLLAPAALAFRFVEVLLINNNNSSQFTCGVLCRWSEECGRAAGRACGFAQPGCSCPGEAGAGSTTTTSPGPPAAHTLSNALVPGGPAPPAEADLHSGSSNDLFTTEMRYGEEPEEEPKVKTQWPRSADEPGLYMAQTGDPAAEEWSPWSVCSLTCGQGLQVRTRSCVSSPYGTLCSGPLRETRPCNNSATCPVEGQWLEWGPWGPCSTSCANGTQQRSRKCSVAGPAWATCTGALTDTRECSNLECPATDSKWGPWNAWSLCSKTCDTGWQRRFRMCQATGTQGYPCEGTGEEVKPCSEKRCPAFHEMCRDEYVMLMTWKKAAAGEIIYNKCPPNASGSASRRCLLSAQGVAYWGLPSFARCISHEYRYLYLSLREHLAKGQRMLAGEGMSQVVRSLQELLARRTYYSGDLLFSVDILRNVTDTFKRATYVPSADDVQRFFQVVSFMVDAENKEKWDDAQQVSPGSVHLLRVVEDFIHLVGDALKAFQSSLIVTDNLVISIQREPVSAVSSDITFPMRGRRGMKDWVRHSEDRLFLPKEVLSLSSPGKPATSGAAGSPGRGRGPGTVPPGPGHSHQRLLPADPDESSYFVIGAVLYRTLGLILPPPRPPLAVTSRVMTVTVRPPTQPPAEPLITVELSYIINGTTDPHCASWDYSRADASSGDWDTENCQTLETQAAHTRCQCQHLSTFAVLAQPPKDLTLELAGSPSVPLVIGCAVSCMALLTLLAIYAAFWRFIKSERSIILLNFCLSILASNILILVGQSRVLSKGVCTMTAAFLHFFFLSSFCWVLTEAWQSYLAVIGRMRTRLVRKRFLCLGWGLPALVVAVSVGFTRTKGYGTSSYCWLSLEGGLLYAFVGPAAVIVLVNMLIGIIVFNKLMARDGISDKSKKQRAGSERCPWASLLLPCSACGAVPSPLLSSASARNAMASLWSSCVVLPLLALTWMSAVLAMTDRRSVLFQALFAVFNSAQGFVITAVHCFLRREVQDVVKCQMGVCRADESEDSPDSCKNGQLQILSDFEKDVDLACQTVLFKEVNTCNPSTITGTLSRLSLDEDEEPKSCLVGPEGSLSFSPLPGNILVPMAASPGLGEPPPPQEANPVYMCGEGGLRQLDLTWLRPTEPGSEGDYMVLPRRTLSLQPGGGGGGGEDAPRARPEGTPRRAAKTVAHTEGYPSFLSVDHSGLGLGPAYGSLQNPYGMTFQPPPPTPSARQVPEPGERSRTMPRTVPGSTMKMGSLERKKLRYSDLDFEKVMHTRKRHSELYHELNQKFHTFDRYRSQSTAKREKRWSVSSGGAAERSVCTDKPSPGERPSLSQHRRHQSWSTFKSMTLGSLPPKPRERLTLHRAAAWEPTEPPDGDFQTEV
Described as above. The test is classed as cell-based. Conditions: variant 3 stably-expressing strain; CCK-8S 10 pM to 1 μM, figure at 1 nM. On the procedure: as §1, §2, §3

For `CNc1ccc2oc(C[C@H]3O[C@@]4(CC[C@H]3C)O[C@H]([C@H](C)C(=O)c3ccc[nH]3)[C@H](C)C[C@H]4C)nc2c1C(=O)O` [A23187], in test [1], the “Change in intracellular Ca2+ concentration (fluorescence intensity)” value is “increased”.

In the case of “cholecystokinin octapeptide sulfated form [CCK-8S]”, in test [2], the “Change in intracellular Ca2+ concentration after addition of CCK-8S” value is given as “increase”.
